These results are taken from patent publication US9550739B2, “Molecules having certain pesticidal utilities, and intermediates, compositions, and processes related thereto” (priority 2014, dated 2017).

The structures appear in SMILES notation.

Holding throughout (assay type): in vivo
In data set [1] the test system is Beet Armyworm (Spodoptera exigua, LAPHEG) ("BAW"). Put plainly: Bioassays on Beet Armyworm (BAW), 128-well diet tray assay. As to conditions: Spodoptera exigua, 168 h; second instar BAW larvae, 50 μg/cm^2 on artificial diet, five to seven days, 25° C.; read-out: BAW % Control (or Mortality) rating. The procedure:
(§1) Certain molecules disclosed in this document were tested against BAW and CEW using procedures described in the following examples. In the reporting of the results, the “BAW & CL Rating Table” was used (See Table Section).
Bioassays on BAW were conducted using a 128-well diet tray assay. one to five second instar BAW larvae were placed in each well (3 mL) of the diet tray that had been previously filled with 1 mL of artificial diet to which 50 μg/cm^2 of the test compound (dissolved in 50 μL of 90:10 acetone-water mixture) had been applied (to each of eight wells) and then allowed to dry. Trays were covered with a clear self-adhesive cover and held at 25° C., 14:10 light-dark for five to seven days. Percent mortality was recorded for the larvae in each well; activity in the eight wells was then averaged. The results are indicated in the table entitled “Table ABC: Biological Results” (See Table Section).

For data set [2], the system named is Cabbage Looper (Trichoplusia ni, TRIPNI) ("CL"). Put plainly: Bioassays on Cabbage Looper (CL), 128-well diet tray assay. As to conditions: Trichoplusia ni, 168 h, read-out: CL % Control (or Mortality) rating. The method, then: as §1
Bioassays on CL were conducted using a 128-well diet tray assay. one to five second instar CL larvae were placed in each well (3 mL) of the diet tray that had been previously filled with 1 mL of artificial diet to which 50 μg/cm^2 of the test compound (dissolved in 50 μL of 90:10 acetone-water mixture) had been applied (to each of eight wells) and then allowed to dry. Trays were covered with a clear self-adhesive cover and held at 25° C., 14:10 light-dark for five to seven days. Percent mortality was recorded for the larvae in each well; activity in the eight wells was then averaged. The results are indicated in the table entitled “Table ABC: Biological Results” (See Table Section).

The test system of data set [3] is Yellow Fever Mosquito (Aedes aegypti, AEDSAE) ("YFM"). The conditions noted are these: about 1 day-old larvae, 4000 ppm master solution diluted, 3 days, room temperature. The procedure: Certain molecules disclosed in this document were tested against YFM using procedures described in the following paragraph. In the reporting of the results, the “YFM Rating Table” was used (See Table Section).
Master plates containing 400 μg of a molecule dissolved in 100 μL of dimethyl sulfoxide (DMSO) (equivalent to a 4000 ppm solution) are used. A master plate of assembled molecules contains 15 μL per well. To this plate, 135 μL of a 90:10 water:acetone mixture is added to each well. A robot (Biomek® NXP Laboratory Automation Workstation) is programmed to dispense 15 μL aspirations from the master plate into an empty 96-well shallow plate (“daughter” plate). There are 6 reps (“daughter” plates) created per master. The created daughter plates are then immediately infested with YFM larvae.
The day before plates are to be treated, mosquito eggs are placed in Millipore water containing liver powder to begin hatching (4 g. into 400 mL). After the daughter plates are created using the robot, they are infested with 220 μL of the liver powder/larval mosquito mixture (about 1 day-old larvae). After plates are infested with mosquito larvae, a non-evaporative lid is used to cover the plate to reduce drying. Plates are held at room temperature for 3 days prior to grading. After 3 days, each well is observed and scored based on mortality.

Turning to `O=C(Nc1ccc(-c2ncn(-c3ccc(OC(F)(F)F)cc3)n2)cc1)c1cccc(-c2ccccc2Cl)c1` [F30, 2′-Chloro-N-(4-(1-(4-(trifluoromethoxy)phenyl)-1H-1,2,4-triazol-3-yl)phenyl)-[1,1′-biphenyl]-3-carboxamide], the mortality at 50 µg/cm2 in data set [1] and in data set [2] was 50 to 100% each time. In addition, the “YFM % Control (or Mortality) rating” value in data set [3] is recorded as “D (No activity noticed in this bioassay)”.
In the case of `Cc1cccc(C)c1-c1cccc(C(=O)Nc2ccc(-c3ncn(-c4ccc(OC(F)(F)C(F)(F)F)cc4)n3)cc2)c1` [F31, 2′,6′-Dimethyl-N-(4-(1-(4-(perfluoroethoxy)phenyl)-1H-1,2,4-triazol-3-yl)phenyl)-[1,1′-biphenyl]-3-carboxamide], the mortality at 50 µg/cm2 in data set [1] and in data set [2] was 50 to 100% in each case. Besides, the “YFM % Control (or Mortality) rating” value in data set [3] was “D (No activity noticed in this bioassay)”.
Turning to `Cc1ccccc1-c1cc(C(=O)Nc2ccc(-c3ncn(-c4ccc(OC(F)(F)F)cc4)n3)cc2)ccc1Cl` [F32, 6-Chloro-2′-methyl-N-(4-(1-(4-(trifluoromethoxy)phenyl)-1H-1,2,4-triazol-3-yl)phenyl)-[1,1′-biphenyl]-3-carboxamide], the mortality – broadly, the share of the test organisms that died – at 50 µg/cm2 in data set [1] is 0%; in data set [2], 50 to 100%. In data set [3], the “YFM % Control (or Mortality) rating” value is recorded as “D (No activity noticed in this bioassay)”.
The corresponding values for `Cc1ccccc1-c1cccc(C(=O)Nc2ccc(-c3ncn(-c4ccc(OC(F)(F)F)cc4)n3)cc2)n1` [F33, 6-(o-Tolyl)-N-(4-(1-(4-(trifluoromethoxy)phenyl)-1H-1,2,4-triazol-3-yl)phenyl)picolinamide] are 0%, 50 to 100% and “D (No activity noticed in this bioassay)”.
The corresponding values for `O=C(Nc1ccc(-c2ncn(-c3ccc(OC(F)(F)F)cc3)n2)cc1)c1ccc(Cl)c(-c2ccccc2)c1` [F34, 6-Chloro-N-(4-(1-(4-(trifluoromethoxy)phenyl)-1H-1,2,4-triazol-3-yl)phenyl)-[1,1′-biphenyl]-3-carboxamide] are 50 to 100%, 50 to 100% and “D (No activity noticed in this bioassay)”.
The corresponding values for `Cc1ccccc1-c1cccc(C(=O)Nc2ccc(-c3ncn(-c4ccc(OC(F)(F)C(F)(F)F)cc4)n3)cc2)c1` [F35, 2′-Methyl-N-(4-(1-(4-(perfluoroethoxy)phenyl)-1H-1,2,4-triazol-3-yl)phenyl)-[1,1′-biphenyl]-3-carboxamide] are 50 to 100%, 50 to 100% and “D (No activity noticed in this bioassay)”.
On to `O=C(Nc1ccc(-c2ncn(-c3ccc(OC(F)(F)C(F)(F)F)cc3)n2)cc1)c1cccc(-c2ccccc2OC(F)(F)F)c1` [F36, N-(4-(1-(4-(Perfluoroethoxy)phenyl)-1H-1,2,4-triazol-3-yl)phenyl)-2′-(trifluoromethoxy)-[1,1′-biphenyl]-3-carboxamide], for which the mortality at 50 µg/cm2 in data set [1] was 0%; in data set [2] it was 50 to 100%. Further, the “YFM % Control (or Mortality) rating” value in data set [3] was “D (No activity noticed in this bioassay)”.
The corresponding values for `COc1ccc(C(=O)Nc2ccc(-c3ncn(-c4ccc(OC(F)(F)F)cc4)n3)cc2)cc1-c1ccccc1` [F37, 6-Methoxy-N-(4-(1-(4-(trifluoromethoxy)phenyl)-1H-1,2,4-triazol-3-yl)phenyl)-[1,1′-biphenyl]-3-carboxamide] are 50 to 100%, 50 to 100% and “A (80-100)”.
Taken in the same sequence, the figures for `Cc1ccccc1-c1cc(F)cc(C(=O)Nc2ccc(-c3ncn(-c4ccc(OC(F)(F)F)cc4)n3)cc2)c1` [F39, 5-Fluoro-2′-methyl-N-(4-(1-(4-(trifluoromethoxy)phenyl)-1H-1,2,4-triazol-3-yl)phenyl)-[1,1′-biphenyl]-3-carboxamide] were 50 to 100%, 50 to 100% and “D (No activity noticed in this bioassay)”.
The corresponding values for `O=C(Nc1ccc(-c2ncn(-c3ccc(OC(F)(F)C(F)(F)F)cc3)n2)cc1)c1ccc(F)c(-c2ccccc2)c1` [F40, 6-Fluoro-N-(4-(1-(4-(perfluoroethoxy)phenyl)-1H-1,2,4-triazol-3-yl)phenyl)-[1,1′-biphenyl]-3-carboxamide] are 0%, 50 to 100% and “D (No activity noticed in this bioassay)”.
Turning to `CC(=O)c1ccccc1-c1cccc(C(=O)Nc2ccc(-c3ncn(-c4ccc(OC(F)(F)F)cc4)n3)cc2)c1` [F41, 2′-Acetyl-N-(4-(1-(4-(trifluoromethoxy)phenyl)-1H-1,2,4-triazol-3-yl)phenyl)-[1,1′-biphenyl]-3-carboxamide], the mortality at 50 µg/cm2 in data set [1] and in data set [2] was 50 to 100% throughout. Further, the “YFM % Control (or Mortality) rating” value in data set [3] is “A (80-100)”.
As to `Cc1ccccc1-c1cc(F)cc(C(=O)Nc2ccc(-c3ncn(-c4ccc(OC(F)(F)C(F)(F)F)cc4)n3)cc2)c1` [F42, 5-Fluoro-2′-methyl-N-(4-(1-(4-(perfluoroethoxy)phenyl)-1H-1,2,4-triazol-3-yl)phenyl)-[1,1′-biphenyl]-3-carboxamide], the mortality at 50 µg/cm2 in data set [1] is 0%; in data set [2], 50 to 100%. Moreover, in data set [3], the “YFM % Control (or Mortality) rating” value is “D (No activity noticed in this bioassay)”.
Taken in the same sequence, the figures for `O=C(Nc1ccc(-c2ncn(-c3ccc(OC(F)(F)F)cc3)n2)cc1)c1cc(Cl)cc(-c2ccccc2)c1` [F43, 5-Chloro-N-(4-(1-(4-(trifluoromethoxy)phenyl)-1H-1,2,4-triazol-3-yl)phenyl)-[1,1′-biphenyl]-3-carboxamide] were 50 to 100%, 50 to 100% and “D (No activity noticed in this bioassay)”.
Taken in the same sequence, the figures for `COc1ccccc1-c1cc(C(=O)Nc2ccc(-c3ncn(-c4ccc(OC(F)(F)F)cc4)n3)cc2)ccc1F` [F44, 6-Fluoro-2′-methoxy-N-(4-(1-(4-(trifluoromethoxy)phenyl)-1H-1,2,4-triazol-3-yl)phenyl)-[1,1′-biphenyl]-3-carboxamide] were 50 to 100%, 50 to 100% and “B (More than 0-Less than 80)”.
Taken in the same sequence, the figures for `O=C(Nc1ccc(-c2ncn(-c3ccc(OC(F)(F)C(F)(F)F)cc3)n2)cc1)c1cccc(-c2ccccc2)c1` [F45, N-(4-(1-(4-(perfluoroethoxy)phenyl)-1H-1,2,4-triazol-3-yl)phenyl)-[1,1′-biphenyl]-3-carboxamide] were 50 to 100%, 50 to 100% and “D (No activity noticed in this bioassay)”.
With `Cc1cccc(C)c1-c1cccc(C(=S)Nc2ccc(-c3ncn(-c4ccc(OC(F)(F)F)cc4)n3)cc2)c1` [F46, 2′,6′-dimethyl-N-(4-(1-(4-(trifluoromethoxy)phenyl)-1H-1,2,4-triazol-3-yl)phenyl)-[1,1′-biphenyl]-3-carbothioamide], the values for the mortality at 50 µg/cm2 in data set [1] and in data set [2] were 0 to 50% and 0%, respectively. The “YFM % Control (or Mortality) rating” value in data set [3] is “D (No activity noticed in this bioassay)”.
Taken in the same sequence, the figures for `O=C(Nc1ccc(-c2ncn(-c3ccc(OC(F)(F)C(F)(F)F)cc3)n2)cc1)c1cccc(-c2ccccc2)n1` [F47, N-(4-(1-(4-(Perfluoroethoxy)phenyl)-1H-1,2,4-triazol-3-yl)phenyl)-6-phenylpicolinamide] were 0%, 0% and “D (No activity noticed in this bioassay)”.
